From patent US20240109917A1 (ACTELION PHARMACEUTICALS LTD, priority 2020, published 2024)
pIC50: −log10 of the molar value.

Experiments:
[1] = target: His6-TEV-PDGFRβ (557-1016) (Homo sapiens (Human), UniProt P09619); test: PDGFRβ HTRF Assay; format: biochemical; conditions: read-out: PDGFR HTRF IC50
In short: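 Human PDGFRβ (557-1016) pre-incubated with compound for 30 min at RT in pH 7.5 HEPES/MgCl2/EGTA/Brij-35/DTT buffer. Reaction started with ATP and TK-biotin peptide, run 3 h at RT, then quenched with EDTA-containing Eu-cryptate antibody/streptavidin-XL665. HTRF 665/620 nm ratio read after 60 min; percent inhibition relative to DMSO and 10 μM imatinib controls.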

PDGFRβ = PDGFRβ (Rattus norvegicus (Rat), UniProt Q05030); test: PDGFRβ Cellular Assay (PDGFRb P-Y751 HTRF in A10 cells stimulated with PDGF-BB); format: cell-based; conditions: read-out: PDGFR Cellular IC50
PDGFRβ, sequence (Q05030 32-1097): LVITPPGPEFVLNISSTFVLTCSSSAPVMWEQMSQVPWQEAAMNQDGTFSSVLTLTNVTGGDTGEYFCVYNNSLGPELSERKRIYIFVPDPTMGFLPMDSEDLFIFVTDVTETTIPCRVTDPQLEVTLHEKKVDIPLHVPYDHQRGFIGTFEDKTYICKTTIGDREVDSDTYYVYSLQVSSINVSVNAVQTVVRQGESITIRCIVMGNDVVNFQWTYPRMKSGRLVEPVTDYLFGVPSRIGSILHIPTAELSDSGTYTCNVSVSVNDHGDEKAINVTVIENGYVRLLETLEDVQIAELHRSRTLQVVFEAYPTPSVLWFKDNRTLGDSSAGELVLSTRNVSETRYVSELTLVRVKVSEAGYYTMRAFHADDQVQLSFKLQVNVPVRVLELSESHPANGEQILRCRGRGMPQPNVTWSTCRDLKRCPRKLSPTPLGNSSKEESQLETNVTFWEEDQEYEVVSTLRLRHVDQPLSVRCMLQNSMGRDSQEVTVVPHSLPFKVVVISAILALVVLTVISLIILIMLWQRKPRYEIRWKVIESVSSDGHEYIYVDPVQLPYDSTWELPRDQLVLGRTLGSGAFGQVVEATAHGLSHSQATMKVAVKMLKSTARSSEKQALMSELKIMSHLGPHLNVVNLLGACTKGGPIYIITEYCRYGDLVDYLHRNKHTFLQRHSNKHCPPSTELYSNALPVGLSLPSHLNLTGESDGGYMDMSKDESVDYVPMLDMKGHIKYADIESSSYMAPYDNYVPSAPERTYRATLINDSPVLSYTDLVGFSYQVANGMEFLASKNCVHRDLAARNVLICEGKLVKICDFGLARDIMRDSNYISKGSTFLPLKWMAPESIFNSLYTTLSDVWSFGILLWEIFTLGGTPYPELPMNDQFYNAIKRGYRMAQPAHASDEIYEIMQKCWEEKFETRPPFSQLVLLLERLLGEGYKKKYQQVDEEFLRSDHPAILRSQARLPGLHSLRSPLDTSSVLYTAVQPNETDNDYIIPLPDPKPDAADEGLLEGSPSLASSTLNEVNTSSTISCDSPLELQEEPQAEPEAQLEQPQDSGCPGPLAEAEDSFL
In short: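 Rat A10 cells, plated overnight, were treated with compound for 3 hours, then stimulated with PDGF-BB (working stock 100 ng/mL in 10% FBS medium). After lysis, PDGFRβ P-Y751 was detected by HTRF.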

His6-TEV-PDGFRβ (557-1016), sequence (P09619 557-1016): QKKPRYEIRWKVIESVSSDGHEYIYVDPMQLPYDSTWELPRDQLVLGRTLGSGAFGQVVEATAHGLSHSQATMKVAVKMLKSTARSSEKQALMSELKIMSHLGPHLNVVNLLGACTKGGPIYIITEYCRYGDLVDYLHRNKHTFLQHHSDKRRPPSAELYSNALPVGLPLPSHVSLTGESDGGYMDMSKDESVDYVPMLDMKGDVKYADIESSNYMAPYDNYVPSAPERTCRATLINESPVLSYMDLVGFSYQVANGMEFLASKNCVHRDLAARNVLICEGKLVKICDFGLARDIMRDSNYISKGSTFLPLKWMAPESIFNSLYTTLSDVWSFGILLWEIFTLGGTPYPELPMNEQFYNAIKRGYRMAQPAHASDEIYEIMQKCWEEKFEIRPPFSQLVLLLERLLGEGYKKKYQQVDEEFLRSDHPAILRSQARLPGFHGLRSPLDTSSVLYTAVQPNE

COCCn1cc(-c2cn3ncc(C(=O)Nc4cc(NC(=O)CCN5CC6CCC5CC6)cnc4C)c3s2)cn1 [Example 100, N-(5-(3-(2-azabicyclo[2.2.2]octan-2-yl)propanamido)-2-methylpyridin-3-yl)-2-(1-(2-methoxyethyl)-1H-pyrazol-4-yl)pyrazolo[5,1-b]thiazole-7-carboxamide]
pIC50 [1]: 9.30
pIC50 (PDGFRβ): 7.48

COCCn1cc(-c2cn3ncc(C(=O)Nc4cc(C(=O)NCCN5CC6CCC5CC6)cnc4C)c3s2)cn1 [Example 142, N-(5-((2-(2-azabicyclo[2.2.2]octan-2-yl)ethyl)carbamoyl)-2-methylpyridin-3-yl)-2-(1-(2-methoxyethyl)-1H-pyrazol-4-yl)pyrazolo[5,1-b]thiazole-7-carboxamide]
pIC50 [1]: 9.30
pIC50 (PDGFRβ): 7.14

Cc1ncc(NC(=O)CCN2CCCC23CC3)cc1NC(=O)c1cnn2cc(-c3cnn(C)c3)sc12 [Example 98]
pIC50 [1]: 9.52
pIC50 (PDGFRβ): 8.33

Cc1ncc(C(=O)NCCN2CCCC23COC3)cc1NC(=O)c1cnn2cc(-c3cn(C)nc3C)sc12 [Example 176, N-(5-((2-(2-oxa-5-azaspiro[3.4]octan-5-yl)ethyl)carbamoyl)-2-methylpyridin-3-yl)-2-(1,3-dimethyl-1H-pyrazol-4-yl)pyrazolo[5,1-b]thiazole-7-carboxamide]
pIC50 [1]: 9.30
pIC50 (PDGFRβ): 7.54

Cc1ncc(NC(=O)NCCC2CCN(C)CC2)cc1NC(=O)c1cnn2cc(-c3cnn(C)c3)sc12 [Example 108, 2-(1-methyl-1H-pyrazol-4-yl)-N-(2-methyl-5-(3-(2-(1-methylpiperidin-4-yl)ethyl)ureido)pyridin-3-yl)pyrazolo[5,1-b]thiazole-7-carboxamide]
pIC50 [1]: 7.97
pIC50 (PDGFRβ): < 5.52

Cc1ncc(C(=O)NCCN2CCOCC23CCC3)cc1NC(=O)c1cnn2cc(-c3cnn(C)c3)sc12 [Example 117, N-(5-((2-(8-oxa-5-azaspiro[3.5]nonan-5-yl)ethyl)carbamoyl)-2-methylpyridin-3-yl)-2-(1-methyl-1H-pyrazol-4-yl)pyrazolo[5,1-b]thiazole-7-carboxamide]
pIC50 [1]: 9.40
pIC50 (PDGFRβ): 8.25

Cc1ncc(C(=O)NCCN2CCC3(CC3)C2)cc1NC(=O)c1cnn2cc(-c3cn(C)nc3C)sc12 [Example 177, N-(5-((2-(5-azaspiro[2.4]heptan-5-yl)ethyl)carbamoyl)-2-methylpyridin-3-yl)-2-(1,3-dimethyl-1H-pyrazol-4-yl)pyrazolo[5,1-b]thiazole-7-carboxamide]
pIC50 [1]: 9.52
pIC50 (PDGFRβ): 7.74

Cc1ncc(C(=O)NCCN2CC(C)(C)C2)cc1NC(=O)c1cnn2cc(-c3cnn(C)c3)sc12 [Example 126, N-(5-((2-(3,3-dimethylazetidin-1-yl)ethyl)carbamoyl)-2-methylpyridin-3-yl)-2-(1-methyl-1H-pyrazol-4-yl)pyrazolo[5,1-b]thiazole-7-carboxamide]
pIC50 [1]: 9.52
pIC50 (PDGFRβ): 7.10

Cc1ncc(C(=O)NCCN2CCCC2(C)C)cc1NC(=O)c1cnn2cc(-c3ccc(=O)[nH]n3)sc12 [Example 141, N-(5-((2-(2,2-dimethylpyrrolidin-1-yl)ethyl)carbamoyl)-2-methylpyridin-3-yl)-2-(6-oxo-1,6-dihydropyridazin-3-yl)pyrazolo[5,1-b]thiazole-7-carboxamide]
pIC50 [1]: 8.74
pIC50 (PDGFRβ): < 5.52

Cc1ncc(C(=O)NCCN2CCC3(CC3)C2)cc1NC(=O)c1cnn2cc(-c3cccnc3)sc12 [Example 159, N-(5-((2-(5-azaspiro[2.4]heptan-5-yl)ethyl)carbamoyl)-2-methylpyridin-3-yl)-2-(pyridin-3-yl)pyrazolo[5,1-b]thiazole-7-carboxamide]
pIC50 [1]: 9.15
pIC50 (PDGFRβ): 7.06

CC(=O)Nc1cncc(-c2cn3ncc(C(=O)Nc4cc(C(=O)NCCN5CC6CCC5CC6)cnc4C)c3s2)c1 [Example 147, N-(5-((2-(2-azabicyclo[2.2.2]octan-2-yl)ethyl)carbamoyl)-2-methylpyridin-3-yl)-2-(5-acetamidopyridin-3-yl)pyrazolo[5,1-b]thiazole-7-carboxamide]
pIC50 [1]: 9.10
pIC50 (PDGFRβ): < 5.70
